Entries after “also recorded” stand apart in the source; their conditions may differ.
Tests used:
[1] = clinical trials for hematopoietic malignancies; Santo et al. Blood 2012; cited from earlier work
[2] = tested on: cells with BRG1 knockdown; experiment: ACY1215 sensitivity after knockdown of SWI/SNF subunit BRG1; type: cell-based
Method: Retrovirus production and transduction were performed as described in Aird et al. Cell Reports 2013, 3, 1252-1265, and Bitler et al. Nat. Med. 2015, 21, 231-238. Phoenix cells were used to package the viruses. Lentivirus was packaged using the Virapower Kit from Life Technologies (Carlsbad, Calif.) following the manufacturer's instructions, and as described Aird et al. Cell Reports 2013, 3, 1252-1265, and Bitler et al. Nat. Med. 2015, 21, 231-238. pLKO.1-shARID1As (TRCN0000059090), pLKO.1-shp53 (TRCN0000010814 and TRCN0000003755), pLKO.1-shHDAC6 (TRCN0000004839 and TRCN0000004841), pLKO.1-shCaspase 3 (TRCN0000003550), shCaspase 9 (TRCN0000003583), shCaspase 8 (TRCN0000003577 and TRCN0000003579)and shBRG1 (TRCN0000015549 and TRCN0000015552) were obtained from Open Biosystems. A shRNA to luciferase was used as a control. […] Cells infected with viruses encoding the puromycin resistance gene were selected in 1 μg/ml puromycin.

[3] = tested on: ARID1A-mutated TOV21G cells; experiment: mitochondrial membrane potential (TMRE, FACS), TOV21G; type: cell-based, human
Method: Mean of five experimental replicates with S.E.M. p-value calculated via two-tailed t-test.
FIG. 96 illustrates ARID1A-mutated TOV21G cells with or without endogenous p53 knockdown by a shp53 that targets the 3′ UTR region of the human TP53 gene together with a lentivirus encoding a control, wildtype p53 or a p53K12OR mutant—the indicated cells were treated with or without ACY1215 and examined for mitochondrial membrane potential by FACS; n=3 independent experiments.
Annexin V and mitochondria membrane potentials were measured as follows. Phosphatidylserine externalization was detected using an Annexin V staining kit (Life Technologies) following the manufacturer's instructions. To measure change in mitochondria membrane potential cells were treated with 200 nM of tetramethylrhodamine, ethyl ester (TMRE; Abcam) for 15 min at 37° C. Annexin V and TMRE-positive cells were detected using the LSR18 and analyzed with the FlowJo software module.

[4] = tested on: ARID1A wild-type RMG1 tumors; experiment: intrabursal orthotopic xenograft, ARID1A wild-type RMG1; type: in vivo, mice
Method: The consecutive sections of tumors dissected from the indicated treatment groups were subjected to immunohistochemical staining for HDAC6, Ki67, cleaved caspase 3 and p53K120AC. Scale bar=100 μm.
Histological score (H-score) was calculated for 5 separate fields from 6 tumors from 6 individual mice from each of the indicated groups. Error bars represent S.E.M. The p-values were calculated via two-tailed t-test.
Immunofluorescence and immunohistochemical staining was performed as follows. Immunofluorescence was performed after 48 hours as indicated by fixing samples in 4% paraformaldehyde and permeabilizing with 0.5% Triton-X. Samples were incubated with primary antibodies for 2 hours at room temperature, highly cross absorbed secondary antibodies (Invitrogen) for 1 hour at room temperature and mounted with prolong anti-fade reagent (Invitrogen). […] Expression of the stained markers was scored using a histologic score (H score) as previously described. […]
The intrabursal orthotopic xenograft in vivo model was performed as described previously (Bitler et al. Nat. Med. 2015, 21, 231-238; Bitler et al. Cancer Research 2011, 71, 6184-6194). […] Images were analyzed using Live Imaging 4.0 software. At end of the experiments, tumors were surgically dissected and tumor burden was calculated based on tumor weight. Intraperitoneally disseminated tumor nodules were quantified.

[5] = tested on: p53 acetylation (lysine 120, 373, 382) in ARID1A-mutated TOV21G cells; experiment: immunoblot of p53 acetylation, TOV21G; type: cell-based, human; conditions: 1.25 μM
Method: Expression of the indicated proteins was determined by immunoblot. GAPDH expression was used as a loading control.
For immunoblotting, protein was isolated as described in Bitler et al. Nat. Med. 2015, 21, 231-238. Briefly, protein was extracted with RIPA buffer (150 mM NaCl, 1% NP40, 0.5% sodium deoxycholate, 0.1% SDS, 50 mM Tris pH 8.0, and 1 mM PMSF). Protein was separated on a SDS-PAGE and transferred to PVDF membrane. For immunoblot of p53 post-translation modifications, cells were treated with a proteasome inhibitor MG132 (10 μM) to stabilize p53 protein.

O=C(CCCCCCNC(=O)c1cnc(N(c2ccccc2)c2ccccc2)nc1)NO [rocilinostat, 2-(diphenylamino)-N-(7-(hydroxyamino)-7-oxoheptyl)pyrimidine-5-carboxamide]
tolerability in clinical studies [1]: well-tolerated without a dose-limiting toxicity; also recorded: well-tolerated and show minimal toxicity | effect of BRG1 knockdown on sensitivity [2]: did not increase | mitochondrial membrane potential in ARID1A-mutated cells ([3]; 1.25 μM): significantly decreased | dependence of mitochondrial membrane potential decrease ([3]; p53 knockdown, wildtype p53 or p53K120R rescue): both p53 and p53K120Ac dependent | growth, tumor burden, dissemination of ARID1A wild-type tumors ([4]; 50 mg/kg daily, 3 weeks): did not significantly affect the growth, tumor burden or dissemination | expression of Ki67, cleaved caspase 3, p53K120Ac (IHC) ([4]; ARID1A wild-type tumors): did not affect the expression of Ki67, cleaved caspase 3, or p53K120Ac | acetylation status of lysine 373 or 382 residue of p53 [5]: unchanged | p53K120Ac level [5]: upregulated

— patent US20190192521A1, “Methods of Treating Arid1A-Mutated Cancers With HDAC6 Inhibitors and EZH2 Inhibitors” (The Wistar Institute of Anatomy and Biology, priority 2016, published 2019)
